# According to the NIST ThermoML archive (doi:10.1021/acs.jced.8b00348):
# ± gives the expanded uncertainty stated by the source.
# Columns and labels:
# [1] = Liquid, Ebulliometric method (Recirculating still)
# [2] = refractive index (Na D-line) (dimensionless); conditions: 293.15 K; 93.13 kPa; Liquid; Standard Abbe refractometry
# [3] = refractive index (Na D-line) (dimensionless); xn = mol fraction of the nth substance listed; conditions: 293.15 K, 93.13 kPa, Liquid, Standard Abbe refractometry
smiles,measurement,setting,value
"Cc1ccc(C)cc1 [1,4-dimethylbenzene]",vapor or sublimation pressure,[1]; 408.37 K,93.13 ± 0.96 kPa
same,refractive index,[2],1.4956 ± 0.0004
CCc1ccccc1 [ethylbenzene],vapor or sublimation pressure,[1]; 406.23 K,93.13 ± 0.96 kPa
same,refractive index,[2],1.4955 ± 0.0004
CCc1ccccc1 [ethylbenzene] + COc1ccccc1,refractive index,[3]; x1 = 1,1.4955 ± 0.0004
"Cc1ccc(C)cc1 [1,4-dimethylbenzene] + COc1ccccc1",refractive index,[3]; x1 = 1,1.4956 ± 0.0004
COc1ccccc1 [anisole] + Cc1ccccc1C,refractive index,[3]; x2 = 0,1.517 ± 0.0004
same,refractive index,[3]; x2 = 0.0825,1.5159 ± 0.0004
same,refractive index,[3]; x2 = 0.1066,1.5156 ± 0.0004
same,refractive index,[3]; x2 = 0.1439,1.5151 ± 0.0004
same,refractive index,[3]; x2 = 0.1945,1.5144 ± 0.0004
same,refractive index,[3]; x2 = 0.2976,1.5131 ± 0.0004
same,refractive index,[3]; x2 = 0.3812,1.512 ± 0.0004
same,refractive index,[3]; x2 = 0.4796,1.5109 ± 0.0004
same,refractive index,[3]; x2 = 0.617,1.5092 ± 0.0004
same,refractive index,[3]; x2 = 0.6785,1.5084 ± 0.0004
same,refractive index,[3]; x2 = 0.7801,1.5072 ± 0.0004
same,refractive index,[3]; x2 = 0.9159,1.5057 ± 0.0004
same,refractive index,[3]; x2 = 0.9329,1.5056 ± 0.0004
"Cc1cccc(C)c1 [1,3-dimethylbenzene]",vapor or sublimation pressure,[1]; 409.13 K,93.13 ± 0.96 kPa
same,refractive index,[2],1.497 ± 0.0004
"Cc1cccc(C)c1 [1,3-dimethylbenzene] + COc1ccccc1",refractive index,[3]; x1 = 1,1.497 ± 0.0004
COc1ccccc1 [anisole] + Cc1ccc(C)cc1,refractive index,[3]; x2 = 0,1.517 ± 0.0004
same,refractive index,[3]; x2 = 0.0499,1.5157 ± 0.0004
same,refractive index,[3]; x2 = 0.1387,1.5138 ± 0.0004
same,refractive index,[3]; x2 = 0.1684,1.5131 ± 0.0004
same,refractive index,[3]; x2 = 0.2124,1.5122 ± 0.0004
same,refractive index,[3]; x2 = 0.2656,1.511 ± 0.0004
same,refractive index,[3]; x2 = 0.3055,1.5101 ± 0.0004
same,refractive index,[3]; x2 = 0.4128,1.5078 ± 0.0004
same,refractive index,[3]; x2 = 0.4494,1.507 ± 0.0004
same,refractive index,[3]; x2 = 0.4497,1.507 ± 0.0004
same,refractive index,[3]; x2 = 0.5122,1.5057 ± 0.0004
same,refractive index,[3]; x2 = 0.5626,1.5046 ± 0.0004
same,refractive index,[3]; x2 = 0.6095,1.5036 ± 0.0004
same,refractive index,[3]; x2 = 0.8055,1.4995 ± 0.0004
same,refractive index,[3]; x2 = 0.8904,1.4978 ± 0.0004
same,refractive index,[3]; x2 = 0.9613,1.4964 ± 0.0004
COc1ccccc1 [anisole] + Cc1cccc(C)c1,refractive index,[3]; x2 = 0,1.517 ± 0.0004
same,refractive index,[3]; x2 = 0.0756,1.5154 ± 0.0004
same,refractive index,[3]; x2 = 0.1836,1.5131 ± 0.0004
same,refractive index,[3]; x2 = 0.2143,1.5125 ± 0.0004
same,refractive index,[3]; x2 = 0.2716,1.5113 ± 0.0004
same,refractive index,[3]; x2 = 0.3152,1.5104 ± 0.0004
same,refractive index,[3]; x2 = 0.4196,1.5082 ± 0.0004
same,refractive index,[3]; x2 = 0.4711,1.5072 ± 0.0004
same,refractive index,[3]; x2 = 0.5086,1.5064 ± 0.0004
same,refractive index,[3]; x2 = 0.6083,1.5045 ± 0.0004
same,refractive index,[3]; x2 = 0.6746,1.5031 ± 0.0004
same,refractive index,[3]; x2 = 0.7383,1.5019 ± 0.0004
same,refractive index,[3]; x2 = 0.8189,1.5002 ± 0.0004
same,refractive index,[3]; x2 = 0.8552,1.4997 ± 0.0004
same,refractive index,[3]; x2 = 0.9339,1.4982 ± 0.0004
"Cc1ccccc1C [1,2-dimethylbenzene] + COc1ccccc1",refractive index,[3]; x1 = 1,1.5048 ± 0.0004
COc1ccccc1 [anisole] + CCc1ccccc1,refractive index,[3]; x2 = 0,1.517 ± 0.0004
same,refractive index,[3]; x2 = 0.0762,1.5152 ± 0.0004
same,refractive index,[3]; x2 = 0.1494,1.5136 ± 0.0004
same,refractive index,[3]; x2 = 0.1767,1.513 ± 0.0004
same,refractive index,[3]; x2 = 0.2118,1.5122 ± 0.0004
same,refractive index,[3]; x2 = 0.2442,1.5115 ± 0.0004
same,refractive index,[3]; x2 = 0.2691,1.511 ± 0.0004
same,refractive index,[3]; x2 = 0.3432,1.5093 ± 0.0004
same,refractive index,[3]; x2 = 0.4041,1.508 ± 0.0004
same,refractive index,[3]; x2 = 0.412,1.5077 ± 0.0004
same,refractive index,[3]; x2 = 0.4651,1.5066 ± 0.0004
same,refractive index,[3]; x2 = 0.5183,1.5055 ± 0.0004
same,refractive index,[3]; x2 = 0.6208,1.5033 ± 0.0004
same,refractive index,[3]; x2 = 0.6885,1.5019 ± 0.0004
same,refractive index,[3]; x2 = 0.7927,1.4998 ± 0.0004
same,refractive index,[3]; x2 = 0.9056,1.4975 ± 0.0004
same,refractive index,[3]; x2 = 0.9514,1.4965 ± 0.0004
"Cc1ccccc1C [1,2-dimethylbenzene]",vapor or sublimation pressure,[1]; 414.41 K,93.13 ± 0.96 kPa
same,refractive index,[2],1.5048 ± 0.0004
COc1ccccc1 [anisole],vapor or sublimation pressure,[1]; 423.38 K,93.13 ± 0.96 kPa
same,refractive index,[2],1.517 ± 0.0004
